Reference: US20260256925A1, “INDAZOLE DERIVATIVES AS ESTROGEN RECEPTOR DEGRADERS” (REGENTS OF THE UNIVERSITY OF MICHIGAN, priority 2022, published 2026)

Each molecule was assayed against T1, ER (Homo sapiens, UniProt P03372) (assay: Western blot analysis (compounds B1-B126)). Settings: ER degradation, read-out: Traditional Western Degradation potency (DC50).
T1 construct: endogenous in cells; probably T47D or MCF-7
T1 sequence (P03372 1-595): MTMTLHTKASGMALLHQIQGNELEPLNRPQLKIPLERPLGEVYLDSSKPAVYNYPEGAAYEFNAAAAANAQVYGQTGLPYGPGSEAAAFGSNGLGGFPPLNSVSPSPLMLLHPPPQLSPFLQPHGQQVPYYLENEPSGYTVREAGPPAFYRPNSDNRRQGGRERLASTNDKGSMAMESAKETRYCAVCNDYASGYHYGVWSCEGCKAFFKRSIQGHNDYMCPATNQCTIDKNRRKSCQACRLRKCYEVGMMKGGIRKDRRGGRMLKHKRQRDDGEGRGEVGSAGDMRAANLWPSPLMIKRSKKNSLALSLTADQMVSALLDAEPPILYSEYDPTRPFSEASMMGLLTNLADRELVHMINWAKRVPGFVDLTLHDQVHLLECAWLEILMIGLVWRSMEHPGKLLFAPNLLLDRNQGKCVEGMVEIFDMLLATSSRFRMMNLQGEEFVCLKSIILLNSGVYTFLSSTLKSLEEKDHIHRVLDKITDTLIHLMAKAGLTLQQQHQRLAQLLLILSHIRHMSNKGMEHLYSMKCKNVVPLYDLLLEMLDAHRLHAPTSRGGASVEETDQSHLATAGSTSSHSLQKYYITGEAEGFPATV
Format: cell-based
Protocol: Western Blot Analysis. The cells that are treated with the compounds are lysed in Radioimmunoprecipitation Assay Protein Lysis and Extraction Buffer (e.g., 25 mmol/L Tris.HCl, pH 7.6, 150 mmol/L NaCl, 1% Nonidet P-40, 1% sodium deoxycholate, and 0.1% sodium dodecyl sulfate) containing proteinase inhibitor cocktail. Equal amounts of total protein are electrophoresed through 10% SDS-polyacrylamide gels after determination of protein concentration by BCA assay. The separated protein bands are transferred onto PVDF membranes and blotted against different antibodies. The blots are scanned, and the band intensities are quantified (e.g., by using GelQuant.NET software provided by biochemlabsolutions.com). The relative mean intensity of target proteins is expressed after normalization to the intensity of glyceraldehyde-3-phosphate dehydrogenase bands.
Western Blot Analysis. Western blot analysis was performed essentially as described previously. The cells treated with indicated compounds were lysed in Radioimmunoprecipitation Assay Protein Lysis and Extraction Buffer (25 mmol/L Tris.HCl, pH 7.6, 150 mmol/L NaCl, 1% Nonidet P-40, 1% sodium deoxycholate, and 0.1% sodium dodecyl sulfate) containing proteinase inhibitor cocktail (Roche Diagnostics, Mannheim, Germany). Equal amounts of total protein were electrophoresed through 10% SDS-polyacrylamide gels after determination of protein concentration by BCA assay (Fisher Scientific, Pittsburgh, PA). The separated protein bands were transferred onto PVDF membranes (GE Healthcare Life Sciences, Marlborough, MA) and blotted against different antibodies, as indicated. The blots were scanned, and the band intensities were quantified using GelQuant.NET software provided by biochemlabsolutions.com. The relative mean intensity of target proteins was expressed after normalization to the intensity of glyceraldehyde-3-phosphate dehydrogenase bands.

| SMILES | DC50 |
| --- | --- |
| C[C@@H]1Cc2c(ccc3[nH]ncc23)[C@@H](c2c(F)cc(N3CCC(CN4CCC(N5Cc6cc7c(cc6C5)C(=O)N(C5CCC(=O)NC5=O)C7)CC4)CC3)cc2F)N1CC(F)F (stereo partly drawn) [Compound B71, 3-(6-(1-((1-(4-((6S,8R)-7-(2,2-difluoroethyl)-8-methyl-6,7,8,9-tetrahydro-3H-pyrazolo[4,3-f]isoquinolin-6-yl)-3,5-difluorophenyl)piperidin-4-yl)methyl)piperidin-4-yl)-1-oxo-3,5,6,7-tetrahydropyrrolo[3,4-f]isoindol-2(1H)-yl)piperidine-2,6-dione] | 10 to 100 nM |
| C[C@@H]1Cc2c(ccc3[nH]ncc23)[C@@H](c2c(F)cc(N3CCC(CN4CCC(N5Cc6cc7c(cc6C5)C(=O)N(C5CCC(=O)NC5=O)C7=O)CC4)CC3)cc2F)N1CC(F)F (stereo partly drawn) [Compound B70, 6-(1-((1-(4-((6S,8R)-7-(2,2-difluoroethyl)-8-methyl-6,7,8,9-tetrahydro-3H-pyrazolo[4,3-f]isoquinolin-6-yl)-3,5-difluorophenyl)piperidin-4-yl)methyl)piperidin-4-yl)-2-(2,6-dioxopiperidin-3-yl)-6,7-dihydropyrrolo[3,4-f]isoindole-1,3(2H,5H)-dione] | 10 to 100 nM |
| C[C@@H]1Cc2c(ccc3[nH]ncc23)[C@@H](c2c(F)cc(N3CC4(CCN(C(=O)CN5Cc6cc7c(cc6C5)C(=O)N(C5CCC(=O)NC5=O)C7=O)CC4)C3)cc2F)N1CC(F)F (stereo partly drawn) [Compound B13, 6-(2-(2-(4-((6S,8R)-7-(2,2-difluoroethyl)-8-methyl-6,7,8,9-tetrahydro-3H-pyrazolo[4,3-f]isoquinolin-6-yl)-3,5-difluorophenyl)-2,7-diazaspiro[3.5]nonan-7-yl)-2-oxoethyl)-2-(2,6-dioxopiperidin-3-yl)-6,7-dihydropyrrolo[3,4-f]isoindole-1,3(2H,5H)-dione] | < 10 nM |
| C[C@@H]1Cc2c(ccc3[nH]ncc23)[C@@H](c2c(F)cc(N3CCC4(CC3)CN(C(=O)CN3Cc5cc6c(cc5C3)C(=O)N(C3CCC(=O)NC3=O)C6=O)C4)cc2F)N1CC(F)F (stereo partly drawn) [Compound B4, 6-(2-(7-(4-((6S,8R)-7-(2,2-difluoroethyl)-8-methyl-6,7,8,9-tetrahydro-3H-pyrazolo[4,3-f]isoquinolin-6-yl)-3,5-difluorophenyl)-2,7-diazaspiro[3.5]nonan-2-yl)-2-oxoethyl)-2-(2,6-dioxopiperidin-3-yl)-6,7-dihydropyrrolo[3,4-f]isoindole-1,3(2H,5H)-dione] | < 10 nM |
| C[C@@H]1Cc2c(ccc3[nH]ncc23)[C@@H](c2c(F)cc(C3CCN(C(=O)[C@H]4CC[C@@H](N5Cc6cc7c(cc6C5)C(=O)N(C5CCC(=O)NC5=O)C7=O)CC4)CC3)cc2F)N1CC(F)F (stereo partly drawn) [Compound B8, 6-((1R,4s)-4-(4-(4-((6S,8R)-7-(2,2-difluoroethyl)-8-methyl-6,7,8,9-tetrahydro-3H-pyrazolo[4,3-f]isoquinolin-6-yl)-3,5-difluorophenyl)piperidine-1-carbonyl)cyclohexyl)-2-(2,6-dioxopiperidin-3-yl)-6,7-dihydropyrrolo[3,4-f]isoindole-1,3(2H,5H)-dione] | > 100 nM |
| C[C@@H]1Cc2c(ccc3[nH]ncc23)[C@@H](c2c(F)cc(C3CCN(C(=O)[C@H]4CC[C@H](N5Cc6cc7c(cc6C5)C(=O)N(C5CCC(=O)NC5=O)C7=O)CC4)CC3)cc2F)N1CC(F)F (stereo partly drawn) [Compound B7, 6-((1S,4r)-4-(4-(4-((6S,8R)-7-(2,2-difluoroethyl)-8-methyl-6,7,8,9-tetrahydro-3H-pyrazolo[4,3-f]isoquinolin-6-yl)-3,5-difluorophenyl)piperidine-1-carbonyl)cyclohexyl)-2-(2,6-dioxopiperidin-3-yl)-6,7-dihydropyrrolo[3,4-f]isoindole-1,3(2H,5H)-dione] | > 100 nM |
| C[C@@H]1Cc2c(ccc3[nH]ncc23)[C@@H](c2c(F)cc(N3CCC(CN4CCN(c5cc6c(cc5F)C(=O)N(C5CCC(=O)NC5=O)C6=O)CC4)CC3)cc2F)N1CC(F)F (stereo partly drawn) [Compound B66, 5-(4-((1-(4-((6S,8R)-7-(2,2-difluoroethyl)-8-methyl-6,7,8,9-tetrahydro-3H-pyrazolo[4,3-f]isoquinolin-6-yl)-3,5-difluorophenyl)piperidin-4-yl)mcthyl)pipcrazin-1-yl)-2-(2,6-dioxopiperidin-3-yl)-6-fluoroisoindoline-1,3-dione] | 10 to 100 nM |
| C[C@@H]1Cc2c(ccc3[nH]ncc23)[C@@H](c2ccc(C3CCC(C(=O)N4CCC(N5Cc6cc7c(cc6C5)C(=O)N(C5CCC(=O)NC5=O)C7=O)CC4)CC3)cn2)N1CC(F)(F)F (stereo partly drawn) [Compound B10, 2-(2,6-dioxopiperidin-3-yl)-6-(1-(4-(6-((6S,8R)-8-methyl-7-(2,2,2-trifluoroethyl)-6,7,8,9-tetrahydro-3H-pyrazolo[4,3-f]isoquinolin-6-yl)pyridin-3-yl)cyclohexane-1-carbonyl)piperidin-4-yl)-6,7-dihydropyrrolo[3,4-f]isoindole-1,3(2H,5H)-dione] | 10 to 100 nM |
| C[C@@H]1Cc2c(ccc3[nH]ncc23)[C@@H](c2c(F)cc(N3CCC(C(=O)N4C5CCC4CC(N4Cc6cc7c(cc6C4)C(=O)N(C4CCC(=O)NC4=O)C7=O)C5)CC3)cc2F)N1CC(F)F (stereo partly drawn) [Compound B103, 6-(8-(1-(4-((6S,8R)-7-(2,2-difluoroethyl)-8-methyl-6,7,8,9-tetrahydro-3H-pyrazolo[4,3-f]isoquinolin-6-yl)-3,5-difluorophenyl)piperidine-4-carbonyl)-8-azabicyclo [3.2.1]octan-3-yl)-2-(2,6-dioxopiperidin-3-yl)-6,7-dihydropyrrolo [3,4-f]isoindole-1,3(2H,5H)-dione] | > 100 nM |
| C[C@@H]1Cc2c(ccc3[nH]ncc23)[C@@H](c2c(F)cc(N3CCC(CN4CCN5c6cc7c(cc6N(C)C[C@@H]5C4)C(=O)N(C4CCC(=O)NC4=O)C7)CC3)cc2F)N1CC(F)F (stereo partly drawn) [Compound B18, 3-((S)-3-((1-(4-((6S,8R)-7-(2,2-difluoroethyl)-8-methyl-6,7,8,9-tetrahydro-3H-pyrazolo[4,3-f]isoquinolin-6-yl)-3,5-difluorophenyl)piperidin-4-yl)methyl)-6-methyl-8-oxo-2,3,4,4a,5,6,8,10-octahydropyrazino[1,2-a]pyrrolo[3,4-g]quinoxalin-9(1H)-yl)piperidine-2,6-dione] | 10 to 100 nM |
| C[C@@H]1Cc2c(ccc3[nH]ncc23)[C@@H](c2c(F)cc(N3CCC(CN4CCN(c5ccc6c(c5)C(=O)N(C5CCC(=O)NC5=O)C6=O)CC4)CC3)cc2F)N1CC(F)F (stereo partly drawn) [Compound B65, 5-(4-((1-(4-((6S,8R)-7-(2,2-difluoroethyl)-8-methyl-6,7,8,9-tetrahydro-3H-pyrazolo[4,3-f]isoquinolin-6-yl)-3,5-difluorophenyl)piperidin-4-yl)methyl)piperazin-1-yl)-2-(2,6-dioxopiperidin-3-yl)isoindoline-1,3-dione] | 10 to 100 nM |
| C[C@@H]1Cc2c(ccc3[nH]ncc23)[C@@H](c2c(F)cc(N3CCC(CN4CCC(N5Cc6cc7c(cc6C5=O)CN(C5CCC(=O)NC5=O)C7=O)CC4)CC3)cc2F)N1CC(F)F (stereo partly drawn) [Compound B19, 2-(1-((1-(4-((6S,8R)-7-(2,2-difluoroethyl)-8-methyl-6,7,8,9-tetrahydro-3H-pyrazolo[4,3-f]isoquinolin-6-yl)-3,5-difluorophenyl)piperidin-4-yl)methyl)piperidin-4-yl)-6-(2,6-dioxopiperidin-3-yl)-2,3,6,7-tetrahydropyrrolo[3,4-f]isoindole-1,5-dione] | < 10 nM |
| C[C@@H]1Cc2c(ccc3[nH]ncc23)[C@@H](c2c(F)cc([C@H]3CC[C@@H](C(=O)N4CCC(N5Cc6cc7c(cc6C5)C(=O)N(C5CCC(=O)NC5=O)C7=O)CC4)CC3)cc2F)N1CC(F)F (stereo partly drawn) [Compound B1, 6-(1-((1R,4s)-4-(4-((6S,8R)-7-(2,2-difluoroethyl)-8-methyl-6,7,8,9-tetrahydro-3H-pyrazolo[4,3-f]isoquinolin-6-yl)-3,5-difluorophenyl)cyclohexane-1-carbonyl)piperidin-4-yl)-2-(2,6-dioxopiperidin-3-yl)-6,7-dihydropyrrolo[3,4-f]isoindole-1,3(2H,5H)-dione] | < 10 nM |
